# Measured values taken from patent publication US20140243415A1, “COMPOUNDS INHIBITING GALECTIN-1 EXPRESSION, CANCER CELL PROLIFERATION, INVASION, AND TUMORIGENESIS” (ONCOETHIX SA, priority 2011, published 2014).
# Columns and labels:
# galectin-1 = target: T1, galectin-1 (Homo sapiens, UniProt P09382); assay: Immunofluorescence of galectin-1 in SQ20B cells; assay type: cell-based
# T1 construct: Western Blot of galectin-1 on SQ20B cells treated with 3 μM OTX-008 for 24 h, 48 h and 72 h; endogenous in cells; host or cells: SQ20B (ATCC)
# T1 sequence (P09382 whole entry): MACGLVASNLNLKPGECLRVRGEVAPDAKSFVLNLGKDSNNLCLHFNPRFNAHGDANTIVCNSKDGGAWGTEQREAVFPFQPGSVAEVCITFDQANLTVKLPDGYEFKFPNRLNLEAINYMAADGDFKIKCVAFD
# Experimental: FIG. 3. Effects of OTX-008 on galectin-1 expression and localization. A—Western Blot of galectin-1 on SQ20B cells treated with 3 μM OTX-008 for 24 h, 48 h and 72 h. B and C—Immunofluorescence of galectin-1 on SQ20B cells treated with 3 μM OTX-008 for 24 and 48 h. B—OTX-008 treatment decreases galectin-1 immunostaining in SQ20B cells. C—Galectin-1 translocates into the nucleus after OTX-008 exposure. D—Western Blot of p-AKTser473, AKT, p-S6, p-ERK1/2, ERK and p-PKCα in SQ20B cells treated with 3 μM OTX-008 for 10 min, 1 h, 2 h, 5 h and 24 h.
# The cells were grown on cover slips at 37° C. overnight. The growth media was then removed; the cells were washed with PBS and fixed in 4% of paraformaldhyde for 15 min and permeabilized with PBS/tritonX100 (1:500) then washed again with PBS. Incubation with primary antibodies was performed at 4° C. overnight (galectin-1, 1:100; Abcam, Cambridge, Mass., USA), followed by the incubation with the secondary antibodies (anti-mouse, 1:100; Cell Signaling, Saint Quentin Yvelines, France) for 1 h at room temperature in the dark. The nuclei were stained with Dapi 1:10000 (Santa Cruz Biotechnology, Santa Cruz, Calif., USA). The images were captured and analyzed with a Zeiss observer Z1 microscope. Images quantification was performed using Histolab Software (Microvision, France) subtracting the background. Magnification ×20 and ×40.
# MCF7-shWISP = assay: Antiproliferative effects, shWISP model; assay type: cell-based, human; settings: MCF7-shWISP vs MCF7
# Excerpt: FIG. 2. Epithelial-to-mesenchymal differentiation and OTX-008 sensitivity. A—Correlations between galectin-1 (LGALS1) and vimentin, E-cadherin (CDH1) and N-cadherin (CDH2) relative mRNA expression. B—Correlations between OTX-008 IC50s and vimentin, E-cadherin (CDH1) and N-cadherin (CDH2) relative mRNA expression. C—Antiproliferative effects of OTX-008 in epithelial COLO205-S and mesenchymal COLO205-R colon cancer cells. D—Antiproliferative effects of OTX-008 in SNAIL-inducible colon cancer cell lines. E—Antiproliferative effects of OTX-008 in shWISP breast cancer cell lines.
# Cell survival was determined using the MTT assay (3-[4,5-dimethylthiazol-2-yl]-2,5-diphenyltetrazolium bromide; Sigma, Saint-Quentin Fallavier, France). The conversion of yellow water-soluble tetrazolium MTT into purple insoluble formazan is catalyzed by mitochondrial dehydrogenases and used to estimate the number of viable cells. In brief, cells were seeded in 96-well tissue culture plates at a density of 2×10^3 cells/well. […] After incubation, the supernatant was discarded, insoluble formazan precipitates were dissolved in 0.1 ml of DMSO and the absorbance was measured at 560 nm by use of a microplate reader (Thermo, France). […] IC50's were determined as the halves of maximal inhibitory drug concentration for each cell line. […]
structure (smiles),measurement,setting,value
CN(C)CCNC(=O)COc1c2cccc1Cc1cccc(c1OCC(=O)NCCN(C)C)Cc1cccc(c1OCC(=O)NCCN(C)C)Cc1cccc(c1OCC(=O)NCCN(C)C)C2 [OTX-008],galectin-1 localization,galectin-1; 3 μM OTX-008,translocates from the cytoplasm to the nucleus
same,galectin-1 expression in the cytoplasm (immunofluorescence),"galectin-1; 3 μM OTX-008, 24 and 48 h",decrease galectin-1 expression
same,effect of WISP inhibition on sensitivity,MCF7-shWISP,marked resistance to high concentrations of the drug
